Patent US5190981A, “Formulation containing S(+) enantiomer of flurbiprofen or ketoprofen and method of use for oral administration for prevention and treatment of bone loss associated with periodontal disease” (Sepracor Inc., priority 1991, dated 1993)

What was measured:
[1] = Bioavailability of flurbiprofen enantiomers in toothpaste: five-way blinded crossover, blood levels over 24 h after toothbrushing, chiral HPLC; type: in vivo, human (healthy adult volunteers); settings: for initial plasma concentrations of each enantiomer across formulations: from toothpaste formulation to toothpaste formulation; for initial plasma concentrations of each enantiomer across formulations / accumulation of enantiomers: data not shown; for accumulation of enantiomers: repeated use
Excerpt: The purpose of this study was to show how well subjects tolerated three strengths of S(+) flurbiprofen toothpaste (1%, 0.5% and 0.25%), as well as the relationship between dose and blood level of the active isomer in comparison with an identical formulation of racemic flurbiprofen (1%) or an intermediate formulation of 80% S(+) flurbiprofen and 20% R(-) flurbiprofen (1%). A toothpaste containing one of the three concentrations of S(+) flurbiprofen, the 1% intermediate formulation or 1% racemic flurbiprofen were used in the study.
The drug is an acid and, therefore, the formulation was adjusted to pH 5.6, in order to improve buccal absorption. The formulation also contained menthol or wintergreen in order to mask the slight bitter taste of the drug. Standard formulation techniques were used.
Eight healthy adult volunteers were selected as subjects for the five-way, blinded, crossover study of flurbiprofen blood levels over a 24 hour period following toothbrushing with toothpastes containing the different concentrations of S(+) flurbiprofen and R(-) flurbiprofen. Each volunteer brushed with about 1 g of a toothpaste formulation for 1 minute followed by rinsing twice daily for 3 days. On the fourth morning, brushing with 1 g of the toothpaste formulation was repeated and blood samples were collected for subsequent analysis at -0.25, 0.25, 1, 2, 4, 8, 12, 23 and 24 hours relative to this toothbrushing episode. Each treatment period was followed by a washout interval of 4 days before the next toothpaste formulation was provided.
The concentration of the individual enantiomers was determined by HPLC on chiral-APG (5μ. 100×4 mm). The mobile phase was 1% 2-propanol in 10 mM NaH2 PO4 buffer, pH 7.0, at 0.6 ml/min. The enantiomers were detected by fluorescence monitoring with excitation at 250 nm and emission at 315 nm. The individual enantiomers were detectable down to 5-10 ng/ml. Standard and calibration curves were prepared for each set of samples and an internal standard of S(+) ibuprofen was added to all samples. Pharmacokinetic calculations were non-compartmental and employed conventional data analysis (linear trapezoidal role) to determine the concentrations or total amounts for each enantiomer and formulation that were analyzed.
The results of this study are presented as follows: 1% by weight racemic flurbiprofen (1S, 1R); 1% by weight 80% S(+) flurbiprofen, 20% R(-) flurbiprofen as a eutectic mixture (2S, 2R); 1% by weight 95% S(+) flurbiprofen, 5% R(-) flurbiprofen (3S); 0.5% by weight 95% S(+) fluriprofen, 5% R(-) flurbiprofen (4S); and 0.25% by weight 95% S(+) flurbiprofen, 5% R(-) flurbiprofen (5S). It should be noted that approximately equivalent amounts (5 mg) of S(+)flurbiprofen were administered in results denoted 1S and 4S. The results from the present study have been further compared with calculations based on results from a previous study by Stalker et al. "Bioavailability of Flurbiprofen following Buccal Administration", Pharm Res. 8, 605-608 (1991). The calculated amounts of administered enantiomer in this previous study are 5 mg buccal S(+) flurbiprofen as a mouthwash (buccal S) or 5 mg PO S(+) flurbiprofen (PO S).

[2] = oral; cited from earlier work

Compound	initial plasma concentrations of each enantiomer across formulations [1]	accumulation of enantiomers ([1]; toothpaste)	absorption of S(+) enantiomer alone vs as racemic mixture ([1]; comparison of 1S and 4S, toothpaste)	blood concentration and persistence, toothpaste vs mouthwash or PO ([1]; equivalent amounts of S(+) flurbiprofen, e.g. 1S and 4S compared to buccal S or PO S)	dose relationship of plasma concentrations, 0.25% to 0.5% ([1]; toothpaste between 0.25% and 0.5% by weight)	dose relationship of plasma concentrations at 1% ([1]; toothpaste, 1% by weight)	absorption when taken orally [2]
C[C@@H](C(=O)O)c1ccc(-c2ccccc2)c(F)c1 [R(-) flurbiprofen]	approximately the same	no accumulation					
C[C@H](C(=O)O)c1ccc(-c2ccccc2)c(F)c1 [S(+) flurbiprofen]	approximately the same	no accumulation	preferentially absorbed when administered alone in a toothpaste formulation than when administered as a racemic mixture	higher and its availability is more persistent when in a toothpaste formulation	dose dependent relationship of plasma concentrations	non-linear at 1% by weight	readily absorbed
